Literature values, collected in patent US8679507B2, “Testosterone olfaction” (priority 2012, dated 2014).

Test system: human females
Conditions: female college students, upper lip exposed; follicular phase

C[C@]12CC[C@@H](O)C[C@@H]1CC[C@@H]1[C@@H]2CC[C@]2(C)C=CC[C@@H]12 [androstenol]
frequency of the LH pulse: decreased
